Source: patent US20180282351A1, “Amorphous Ixazomib Citrate” (Mylan Laboratories Ltd, priority 2015, published 2018)

Experiment: Stability of Form M2 on storage, polymorph checked by PXRD
Type: physicochemical
Protocol: In one aspect, the present invention provides crystalline ixazomib citrate form M1. The ixazomib citrate forms of the present invention, including form M1, prepared by methods disclosed herein, may be characterized by PXRD. Therefore samples of each ixazomib citrate form (including amorphous, M1, M2, M3, and M4) were analyzed by PXRD on a BRUKER D-8 Discover powder diffractometer equipped with a goniometer of θ/2θ configuration and Lynx Eye detector. The Cu-anode X-ray tube was operated at 40 kV and 30 mA. The experiments were conducted over the 2θ range of 2.0°-50.0°, 0.030° step size, and 0.4 seconds step time.

- Long-term physical stability (change in PXRD pattern) (1, 3 and 6 months stored at 5±3° C., at 25° C./60% and at 40° C./75% relative humidity (RH)): does not show any change in PXRD pattern
- Polymorph by PXRD (at 5 ± 3° C., 1 month): Form M2
- Polymorph by PXRD (at 5 ± 3° C., 3 months): Form M2
- Polymorph by PXRD (at 5 ± 3° C., 6 months): Form M2
- Polymorph by PXRD (at 5 ± 3° C., Initial): Form M2
- Polymorph by PXRD (at 25° C./60% RH, 1 month): Form M2
- Polymorph by PXRD (at 25° C./60% RH, 3 months): Form M2
- Polymorph by PXRD (at 25° C./60% RH, 6 months): Form M2
- Polymorph by PXRD (at 25° C./60% RH, Initial): Form M2
- Polymorph by PXRD (at 40° C./75% RH, 1 month): Form M2
- Polymorph by PXRD (at 40° C./75% RH, 3 months): Form M2
- Polymorph by PXRD (at 40° C./75% RH, 6 months): Form M2
- Polymorph by PXRD (at 40° C./75% RH, Initial): Form M2
Structure (SMILES): CC(C)C[C@H](NC(=O)CNC(=O)c1cc(Cl)ccc1Cl)B1OC(=O)C(CC(=O)O)(CC(=O)O)O1 [Form M2, 2,2′-{2-[(1R)-1-({[(2,5-dichlorobenzoyl)amino]acetyl}amino)-3-methylbutyl]-5-oxo-1,3,2-dioxaborolane-4,4-diyl}diacetic acid]
